Experimental data as given in patent US20080039377A1, “Composition Comprising a Jnk Inhibitor and Cyclosporin” (Applied Research Systems ARS Holding N.V., priority 2004, published 2008).

Test system: model of global ischemia in gerbils
Test: Neuroprotective effect of a JNK inhibitor combined with cyclosporin in a model of global ischemia in gerbils
Format: in vivo
Settings: for neuroprotective effects (hippocampal damage assessed by histology): compared to vehicle and to JNK inhibitor alone
Protocol: In Vivo Assay: Neuroprotective Effect of a JNK Inhibitor Combined with Cyclosporin in a Model of Global Ischemia in Gerbils
The following assay aims at determining the neuroprotective effect of the test compositions in a model of global ischemia in gerbils, in vivo.
A total of 73 gerbils (60-80 g; obtained from Elevage Janvier, France) were provided. 4 groups, each consisting of 6-36 animals were formed: • Group 1 (n=36): The animals were administered (ip) a dose of 10 ml/kg of vehicle. • Group 2 (n=6): The animals were administered (ip) a dose of 15 mg/kg of cyclosporine. • Group 3 (n=8): The animals were administered (ip) a dose of 60 or 40 mg/kg of a JNK inhibitor according to formula (I) or (II). • Group 4 (n=7-8): The animals were administered (ip) a dose of the test composition containing 60 or 40 mg/kg of a JNK inhibitor according to formula (I) or (II) together with 15 mg/kg cyclosporine.
Surgery. Gerbils weighting 60-80 g were anaesthetized with 4% isoflurane (Baxter, Volketswil, Switzerland) in medical air, administered via facemask. The anaesthesia was then maintained using 3% isoflurane until the end of surgery. Bilateral common carotid arteries were dissected and occluded with bulldog clamps for 5 min.
Histology. Seven days after the onset of occlusion, the animals were killed by decapitation. The brains were frozen at −20° C. in 2-methylbutane and cut in 20 μm-thick sections in a cryocut (Microm HM 5000M, Walldorf, Germany). The sections were stained with cresyl violet acetate and the lesion in the hippocampus were scored within a 5-point scale: • Score 0: No loss of CA1 neurons; • Score 1: Weak damage of CA1 (CA1/Subiculum or CA1/CA3 border); • Score 2: Loss of CA1 neurons (<1/2); • Score 3: Loss of CA1 neurons (>1/2); and • Score 4: Total loss of CA1 neurons and expanding into other areas (CA3, Dentate gyrus, Cortex). The total score was obtained as the sum of scores in the right and left hemispheres.

| SMILES | neuroprotective effects (hippocampal damage assessed by histology) (JNK inhibitor 60 mg/kg ip with Cyclosporin 15 mg/kg ip) | Histological score Mean ± SEM (Table I, Group 2: JNK inhibitor 0 mg/kg ip, Cyclosporine A 15 mg/kg ip, hippocampal lesion score (sum of both hemispheres, 0-4 each) 7 days after 5 min bilateral carotid occlusion) | Histological score Mean ± SEM (Table I, Group 3: JNK inhibitor 60 mg/kg ip, Cyclosporine A 0 mg/kg, hippocampal lesion score 7 days after occlusion) | Histological score Mean ± SEM (Table I, Group 4: JNK inhibitor 60 mg/kg ip together with Cyclosporine A 15 mg/kg ip, hippocampal lesion score 7 days after occlusion) | neuroprotective effects (hippocampal damage assessed by histology) (JNK inhibitor 40 mg/kg ip with Cyclosporin 15 mg/kg ip) | Histological score Mean ± SEM (Table II, Group 2: JNK inhibitor 0 mg/kg ip, Cyclosporine A 15 mg/kg ip, hippocampal lesion score 7 days after occlusion) | Histological score Mean ± SEM (Table II, Group 3: JNK inhibitor 60 mg/kg ip, Cyclosporine A 0 mg/kg, hippocampal lesion score 7 days after occlusion) | Histological score Mean ± SEM (Table II, Group 4: JNK inhibitor 60 mg/kg ip together with Cyclosporine A 15 mg/kg ip, hippocampal lesion score 7 days after occlusion) |
| --- | --- | --- | --- | --- | --- | --- | --- | --- |
| N#CC(c1ccnc(NCCc2cccnc2)n1)c1nc2ccccc2s1 (centres unmarked) [Compound A, 1,3-benzothiazol-2-yl(2-{[2-(3-pyridinyl)ethyl]amino}-4-pyrimidinyl)acetonitrile] | increases the neuroprotective effects | 6.0 ± 0.0 | 3.6 ± 0.8 | 1.3 ± 0.6 |  |  |  |  |
| CC#N.CCCCNC1CCN(S(=O)(=O)c2ccc(CNC(=O)c3ccc(Cl)cc3)s2)CC1 [Compound B, 4-chloro-N-[(5-{[4-(butylamino)piperidin-1-yl]sulfonyl}thien-2-yl)methyl]benzamide acetonitrile] |  |  |  |  | increases the neuroprotective effects | 6.0 ± 0.0 | 5.3 ± 0.5 | 2.1 ± 0.6 |
